The target in one experiment is T1, yeast HSP90 (Saccharomyces cerevisiae, UniProt P02829).
T1 construct: made in house; host or cells: E. coli
T1 sequence (P02829 whole entry, looked up): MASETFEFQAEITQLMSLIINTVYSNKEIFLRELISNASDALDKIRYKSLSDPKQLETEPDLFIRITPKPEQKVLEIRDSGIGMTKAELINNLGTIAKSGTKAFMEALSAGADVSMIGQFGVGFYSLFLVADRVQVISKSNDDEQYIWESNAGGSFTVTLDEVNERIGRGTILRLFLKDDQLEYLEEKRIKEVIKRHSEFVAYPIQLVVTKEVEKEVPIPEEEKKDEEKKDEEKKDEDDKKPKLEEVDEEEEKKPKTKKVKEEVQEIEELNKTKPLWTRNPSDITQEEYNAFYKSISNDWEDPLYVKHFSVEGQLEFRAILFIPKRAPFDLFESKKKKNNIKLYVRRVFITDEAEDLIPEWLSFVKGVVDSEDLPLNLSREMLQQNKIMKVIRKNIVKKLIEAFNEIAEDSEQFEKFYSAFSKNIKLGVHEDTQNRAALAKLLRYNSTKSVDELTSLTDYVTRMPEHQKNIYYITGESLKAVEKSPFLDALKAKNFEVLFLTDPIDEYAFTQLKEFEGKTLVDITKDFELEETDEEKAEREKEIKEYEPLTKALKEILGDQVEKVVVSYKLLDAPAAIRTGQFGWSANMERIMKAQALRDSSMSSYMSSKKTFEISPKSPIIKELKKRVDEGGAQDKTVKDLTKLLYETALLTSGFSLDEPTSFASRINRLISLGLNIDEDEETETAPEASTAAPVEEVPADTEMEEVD
In words: Malachite green HSP90 ATPase assay. Type of experiment: biochemical. To be noted: Hsp90 IC50, activity class. The text has this: Two methods have been developed to measure the intrinsic ATPase activity of HSP90, using yeast HSP90 as a model system. The first method utilises a regenerating coupled enzyme assay. The second assay, based on the use of malachite green for the measurement of inorganic phosphate, was designed for high throughput screening (HTS) to identify novel HSP90 inhibitor drug candidates.
Colorimetric assays for the determination of phosphate, based on the formation of a phosphomolybdate complex, can be carried out in a few steps with inexpensive reagents and are well suited to the automation required for high throughput screening (see, e.g., Cogan et al., 1999). Enzymes that release inorganic phosphate are assayed using the reaction of the cationic dye, malachite green, with the a complex formed by a reaction of the inorganic phosphate with molybdate to generate a blue-green colour with an absorbance maximum at 610 nm (see, e.g., Baykov et al., 1988; Harder et al., 1994; Maehama et al., 2000). The method has been used in both high throughput (see, e.g., Rumsfeld et al., 2000) and ultra-high throughput screening formats (see, e.g., Layery et al., 2001) for a variety of non-HSP90 ATPases. However, this method is complicated by the non-enzymatic hydrolysis of ATP in the presence of acidic malachite green reagent, causing an increase in colour (see, e.g., Chan et al., 1986; Henkel et al., 1988). This process is mediated by molybdate and can be overcome by the addition of sodium citrate immediately after the reagent (see, e.g., Lanzetta et al., 1979; Schirmer et al., 1998; Baginski et al., 1975). This modification has been adapted to the 96-well microtitre plate assay previously described for other ATPases (see, e.g., Lanzetta et al., 1979) to produce the following protocol for HSP90 ATPase, which is suitable for high throughput screening.
Chemicals are of the highest purity commercially available and all aqueous solutions are made up in AR water. Because of the need to minimise contamination with inorganic phosphate, precautions should be taken with solutions and apparatus used in the assays. Glassware and pH meters are rinsed with double distilled or deionised water before use and, wherever possible, plastic ware should be used. Gloves are worn for all procedures. • (1) Immulon 96-well (Thermo Labsystems, Basingstoke, UK) or Cliniplate 384-well flat-bottomed polystyrene multiwell plates (Thermo Labsystems). • (2) Assay buffer of (a) 100 mM Tris-HCl, pH 7.4, (b) 20 mM KCl, (c) 6 mM MgCl2. Stored at 4° C. • (3) 0.0812% (w/v) malachite green (M 9636, Sigma Aldrich Ltd., Poole, UK). Stored at room temperature. • (4) 2.32% (w/v) polyvinyl alcohol USP (P 1097, Sigma Aldrich Ltd, Poole, UK) in boiling water (see Comment 1), allowed to cool, and stored at room temperature. • (5) 5.72% (w/v) ammonium molybdate in 6 M hydrochloric acid. Stored at room temperature. • (6) 34% (w/v) sodium citrate. Stored at room temperature. • (7) ATP, disodium salt, special quality (519979, Boehringer Mannheim, Lewes, UK). Stored at 4° C. • (8) E. coli expressed yeast HSP90 protein, purified >95% (see, e.g., Panaretou et al., 1998) and stored at −80° C. as 10 μl aliquots containing 0.5 mg of protein. Method
The following protocol was used: • (1) On the day of use, prepare the malachite green reagent from the stock solutions. Mix (a) 2 parts of malachite green, (b) 1 part of polyvinyl alcohol, (c) 1 part of ammonium molybdate, and (d) 2 parts of water. Initially, the reagent is a dark brown colour, but after standing at room temperature for about 2 h, this becomes a golden yellow colour and is ready for use. • (2) For the high throughput screening assays, the test compounds are dissolved at 200 μM in 2.0% DMSO and contained in daughter plates derived from the chemical libraries. Transfer 5 μl of each sample from the daughter plate to each well of the assay plate using automated equipment (see Comment 3). This represents a final concentration in the well of 40 μM.
As usually defined, the IC50 is the concentration needed to halve the response being measured. Take `CCc1cc(-c2n[nH]c(C)c2-c2ccc3c(c2)OCCO3)c(O)cc1O` [Example 49]: the half-inhibitory concentration (IC50) was less than 10 µM.

Compound `Cc1[nH]nc(-c2ccc(O)cc2O)c1-c1ccc2c(c1)OCCO2` [Example 81] showed an IC50 of 10 to 100 µM.

`COc1ccc(-c2c(-c3cc(Cl)c(O)cc3O)n[nH]c2C)cc1` [Example 64] came in with an IC50 of less than 10 µM.

Turning to `Oc1cc(O)c(-c2n[nH]cc2-c2ccc3c(c2)OCCO3)cc1Cl` [Example 63], the IC50 is less than 10 µM.

With `COc1ccc(-c2c(-c3ccc(O)cc3O)n[nH]c2C)cc1` [Example 92], the IC50 lay within 10 to 100 µM.

Staying with this experiment, now noted: activity class; read-out: Hsp90 IC50.
On to `Cc1[nH]nc(-c2cccc(C#N)c2)c1-c1ccc2c(c1)OCCO2` [Example 118], for which the IC50 is more than 10 µM.

For the compound `CCc1cc(-c2[nH]nc(CCC(=O)O)c2-c2nc3ccccc3n2C)c(O)cc1O` [Example 99], the IC50 fell in the range of 10 to 100 µM.

Turning to `CCCc1cc(-c2n[nH]c(C)c2-c2ccc(C(=O)OCC)o2)c(O)cc1O` [Example 98], the IC50 fell in the range of 10 to 100 µM.

For the compound `CCOC(=O)c1cccc(-c2n[nH]c(C)c2-c2ccc3c(c2)OCCO3)c1` [Example 116], the IC50 was more than 10 µM.

Take `Cc1[nH]nc(-c2ccc(O)cc2O)c1-c1cnn(-c2ccccc2)c1` [Example 137]: the IC50 was more than 10 µM.

Consider `COc1ccc(-c2c(-c3cc(Cc4ccccc4)c(O)cc3O)n[nH]c2C)cc1` [Example 104, 4-benzyl-6-[4-(4-methoxy-phenyl)-5-methyl-1H-pyrazol-3-yl]-benzene-1,3-diol], for which the IC50 is less than 10 µM.

As for `Cc1nc(-c2c[nH]nc2-c2cc(C)c(O)cc2O)cs1` [Example 90], the IC50 was in the range of 10 to 100 µM.

`CCc1cc(-c2n[nH]cc2-c2ccc(OC)c(OC)c2)c(O)cc1O` [Example 50]: the IC50 is less than 10 µM.

In the case of `COc1ccc(-c2cccc(-c3c[nH]nc3-c3cc(Cl)c(O)cc3O)c2)cc1OC` [Example 68], the IC50 is 10 to 100 µM.

`CCc1cc(-c2n[nH]c(C(F)(F)F)c2-c2nc3ccccc3s2)c(O)cc1O` [Example 84]: the IC50 was 10 to 100 µM.

For `CCc1cc(-c2n[nH]cc2-c2ccc3c(c2)OCO3)c(O)cc1OC` [Example 120], the IC50 was more than 10 µM.

Take `Cc1[nH]nc(-c2cc(Cl)c(O)cc2O)c1-c1ccccc1` [Example 127]: the IC50 is more than 10 µM.

With `O=C(O)COc1ccc(-c2n[nH]cc2-c2ccc3c(c2)OCCO3)c(O)c1` [Example 125], the IC50 was more than 10 µM.

Turning to `COc1ccc(-c2ccc(-c3c[nH]nc3-c3cc(Cl)c(O)cc3O)cc2)cc1OC` [Example 157], the IC50 is less than 10 µM.

As for `CC(=O)Nc1ccc(-c2n[nH]c(C)c2-c2ccc3c(c2)OCCO3)cc1` [Example 112], the IC50 is more than 10 µM.

For the compound `CCc1cc(-c2n[nH]c(C)c2-c2nc3ccccc3s2)c(O)cc1O` [Example 146], the IC50 was more than 10 µM.

With `CCCc1cc(-c2n[nH]c(C)c2-c2ccc3c(c2)OCCO3)c(O)cc1O` [Example 88], the IC50 was 10 to 100 µM.

For `COc1cccc(-c2c[nH]nc2-c2cc(Cl)c(O)cc2O)c1` [Example 77], the IC50 is less than 10 µM.

Regarding `Cc1[nH]nc(-c2ccc(O)cc2O)c1-c1ccccc1` [Example 59], the IC50 is more than 10 µM.

As to `Oc1ccc(-c2c[nH]nc2-c2cc(Cl)c(O)cc2O)cc1` [Example 76], the IC50 is less than 10 µM.

Take `N#CCCCOc1ccccc1-c1c[nH]nc1-c1cc(Cl)c(O)cc1O` [Example 74]: the IC50 was less than 10 µM.

For `Cc1[nH]nc(-c2cccc(Cl)c2Cl)c1-c1ccc2c(c1)OCCO2` [Example 150], the IC50 is more than 10 µM.

With `Oc1cc(O)c(-c2n[nH]cc2-c2ccccc2Br)cc1Cl` [Example 60], the IC50 is less than 10 µM.

On to `Cc1[nH]nc(-c2cc(Cl)ccc2O)c1-c1ccc2c(c1)OCCO2` [Example 107], for which the IC50 fell in the range of 10 to 100 µM.

Turning to `CCc1cc(-c2n[nH]cc2-c2ccc3c(c2)OCO3)c(O)cc1O` [Example 87], the IC50 is less than 10 µM.

For the compound `CCc1cc(-c2n[nH]cc2-c2ccc(Br)cc2)c(O)cc1O` [Example 79], the IC50 is less than 10 µM.

For the compound `Cc1ncc(-c2c(-c3ccc(O)cc3O)n[nH]c2C(F)(F)F)s1` [Example 143], the IC50 was more than 10 µM.

Take `Oc1cc(O)c(-c2n[nH]cc2-c2cccc(Br)c2)cc1Cl` [Example 66]: the IC50 is less than 10 µM.

Regarding `CCc1cc(-c2n[nH]cc2-c2ccc([N+](=O)[O-])cc2)c(O)cc1OC` [Example 80], the IC50 lay within 10 to 100 µM.

In the case of `Oc1ccc(-c2n[nH]c(C(F)(F)F)c2-c2ccccc2Cl)c(O)c1` [Example 144], the IC50 was more than 10 µM.

In the case of `Cc1[nH]nc(-c2ccc(S(N)(=O)=O)cc2)c1-c1ccc2c(c1)OCCO2` [Example 111], the IC50 is more than 10 µM.

As for `N#CCCCOc1cccc(-c2c[nH]nc2-c2cc(Cl)c(O)cc2O)c1` [Example 73], the 50% inhibitory concentration (IC50) is less than 10 µM.

As for `CCc1cc(-c2n[nH]cc2-c2ccccc2)c(O)cc1OC` [Example 128], the IC50 was more than 10 µM.

Regarding `CCOc1cccc(-c2ccc(-c3c[nH]nc3-c3cc(Cl)c(O)cc3O)cc2)c1` [Example 72], the IC50 is less than 10 µM.

For the compound `O=C(O)CCCOc1ccc(-c2c[nH]nc2-c2cc(Cl)c(O)cc2O)cc1` [Example 75], the IC50 is less than 10 µM.

Take `Cc1[nH]nc(-c2cc(Cl)c(O)cc2O)c1-c1ccccc1` [Example 78]: the IC50 is less than 10 µM.

On to `CCc1cc(-c2n[nH]c(C(F)(F)F)c2-c2ccccc2)c(O)cc1O` [Example 103], for which the IC50 lay within 10 to 100 µM.

With `CCc1cc(-c2n[nH]c(C)c2-c2nc3ccccc3s2)c(O)cc1OCC(=O)NN` [Example 119], the IC50 was more than 10 µM.

On to `COc1ccc(-c2c(-c3cc(-c4ccccc4)c(O)cc3O)n[nH]c2C)cc1` [Example 94], for which the IC50 was less than 10 µM.

As to `Oc1cc(O)c(-c2n[nH]cc2-c2ccc(-c3ccc(F)cc3)cc2)cc1Cl` [Example 62], the IC50 was less than 10 µM.

As for `CCCc1cc(-c2n[nH]c(C)c2-c2nc3ccccc3s2)c(O)cc1O` [Example 100], the IC50 lay in the range of 10 to 100 µM.

`Oc1cc(O)c(-c2n[nH]cc2-c2ccccc2F)cc1Cl` [Example 65]: the IC50 is less than 10 µM.

Take `CCc1cc(-c2n[nH]cc2-c2ccc(OC)cc2)c(O)cc1O` [Example 141]: the IC50 lay in the range of 10 to 100 µM.

Still in this experiment, the particulars now being: activity range, ATPase assay; read-out: ATPase IC50.
In the case of `COc1ccc(-c2c(-c3ccc(CO)cc3O)n[nH]c2C)cc1` [Example 183], the IC50 was more than 50 µM.

In the case of `COc1ccc(-c2c(-c3cc(Cl)c(O)cc3O)n[nH]c2Br)cc1` [Example 179, 4-[5-Bromo-4-(4-methoxy-phenyl)-1H-pyrazol-3-yl]-6-chloro-benzene-1,3-diol], the IC50 was less than 50 µM.

Regarding `Oc1cc(O)c(-c2n[nH]cc2-c2ccc3c(c2)CCO3)cc1Cl` [Example 173], the IC50 was less than 50 µM.

`Oc1cc(O)c(-c2n[nH]cc2-c2ccncc2)cc1Cl` [Example 175]: the IC50 was less than 50 µM.

For `COc1ccc(-c2cn(C)nc2-c2cc(Cl)c(O)cc2O)cc1OC` [Example 165], the IC50 was more than 50 µM.

As for `COc1ccc(-c2c(-c3cc(Cl)c(O)cc3O)n[nH]c2C(=O)NCc2ccccc2)cc1` [Example 171, 5-(5-Chloro-2,4-dihydroxy-phenyl)-4-(4-methoxy-phenyl)-2H-pyrazole-3-carboxylic acid benzylamide], the IC50 is less than 50 µM.

`NC(=O)c1ccc(-c2c[nH]nc2-c2cc(Cl)c(O)cc2O)cc1` [Example 181]: the IC50 was less than 50 µM.

Turning to `Cc1nc2cc(-c3c[nH]nc3-c3cc(Cl)c(O)cc3O)ccc2s1` [Example 176], the IC50 is less than 50 µM.

For the origin of these results see patent US7247734B2 (Vernalis (Cambridge) Limited, priority 2001, dated 2007).
